Experimental findings from patent US20240108637A1, “EPITE[…] AND/OR A STEROID SULFATASE INHIBITOR FOR USE IN TREATING OR IMPROVING AGE RELATED COGNITIVE IMPAIRMENT” (U[…] DE OLAVIDE, priority 2020, published 2024) are described below.

One test concerns daf-2(e1370). As to the kind of experiment: Developmental arrest (dauer / L1) at 25° C. The format is in vivo, C. elegans. The settings on record: daf-2(e1370) background. As to the method: Worms were growth at 16° C. until L4, then shifted to 25° C. considering this Day 0 of adulthood. The pumping was counted under the Leica stereoscope at 100× magnification for 30 seconds. Data display from two independent biological assays (n=30 per day). Two-tailed Mann-Whitney t-test, ***p=0.0006. e Thrashing in sul-2(gk187) is similar to wild type but is slightly lower in sul-2 (pv17) at 25° C. on day 1 of adulthood. On day 6 at 25° of adulthood, the trashing on sul-2(gk187) is lower than wild type and sul-(pv17), with no differences among these last strains. The population of sul-2(gk17) at day 6 seems to distribute into two different populations, one with almost no thrashing and other with values similar to wild type a sul-2(pv17). […] In this condition, all animals from daf-2(e1370); sul-2(pv17) double mutants arrest at L1 stage. Similarly, more than 50% of animals arrest in L1 stage in daf-2(m577); sul-2(pv17) background, while none of the single mutants show this phenotype. i Example of sul-2(pv17) larvae, dauer larval arrest of daf-2(e1370) or L1 arrest of daf-2(e1370); sul-2 (pv17) and daf-2(e1370); sul-2(gk187) at 25° C. Animals were grown up to L4 at 16° C., then shifted at 25° C., progeny were scored or imaged after 72 hours. Photographs were taken in a Leica scope.

Test [1] concerns wild type mice injected with β-amyloid oligomers in the hippocampus. In words: Passive avoidance test after intrahippocampal βA oligomers infusion (acute AD model). The test is classed as in vivo. An excerpt:
As STX64 ameliorated neurodegeneration in C. elegans models, we tested the effect of this drug on cognitive alterations provoked by intrahippocampal βA oligomers infusion, an acute AD mammalian model (FIG. 3i). […] To evaluate the effect of STX64 oral treatment on amyloid pathology in a chronic AD mice model, we assessed the effect of 3-4 weeks of STX64 oral treatment on amyloid deposition in the neocortex (the cerebral cortex and the hippocampus) of >15-month-old APP-PS1 mice (FIG. 4k). […] We wondered if this histological improvement correlated with amelioration of cognitive behavioural deficit. For that, we compared cognition capacities in APP-PS1 mice older than 15-month-old treated with vehicle or STX64 for 3-4 weeks.
(§1) The first, object recognition, after training with identical objects, tests the ability to identify different objects exposed together with a familiar one. When this happens, the object discrimination index is positive and higher than 0.1. […] For this purpose, during training, the entry latency to the preferred site is established and the aversive stimulus is administered.

The subject of a further test is aged mice. As to the kind of experiment: Object recognition test in aged mice. The test is classed as in vivo. As to the method: as §1
In another test the test system is 16-month-old mice. As to the kind of experiment: Open Field test. The format is in vivo. The settings on record: FIG. 20; for habituation ability: aged animals, Open Field 15 minutes. As to the method:
The “Open Field” is a test where the mouse must explore an unknown space for 15 minutes. In this test, both mobility and habituation (cognitive parameter that measures the individual's ability to recognize the environment) can be studied. On the other hand, the “Y maze” test is a test where the mouse explores the maze for 6 minutes. This test evaluates the distance traveled as a measure of mobility and the ability to visit triplets of arms without repeating any of them as a sign of immediate memory.

Entries after “also recorded” stand apart in the source; their conditions may differ.

For the compound `NS(=O)(=O)Oc1ccc2c3c(c(=O)oc2c1)CCCCC3` [STX64], the L1 arrest result with daf-2(e1370) is given as “phenocopies other sul-2 mutant phenotypes; also recorded: mainly arrests in L1”; with daf-2(e1370) (listed as STX 64) it was “increase of L1 arrest”. Moreover, the “cognitive deficiencies, passive avoidance test” value in test [1] (local (intrahippocampal) administration) and in test [1] (systemic (oral) administration) was “reverted the cognitive deficiencies” in each case. For the same compound, the object recognition entry in the test on aged mice (3-month treatment in 18 months old mice, FIG. 19B) is given as “is improved”; in the test with aged mice (3 months treatment in 15 months old mice, FIG. 16B), “is improved”; in the test with aged mice (6 months treatment in 15 months old mice, FIG. 17B) it was “is improved”. Also, in the test on aged mice (aged mice, vs vehicle-treated, FIG. 21, listed as STX), the “learning and memory, object recognition test” value was “showed significantly both learning (STM) and ability to store information (memory); also recorded: significant improvement in both learning (STM) and ability to store information (memory)”. Besides, the “motor ability (mobility)” value in the test on 16-month-old mice (16-month-old mice, Open Field mobility and Y maze distance traveled) is listed as “tend to improve”. The habituation ability result with 16-month-old mice is listed as “tend to improve”; in the test with 16-month-old mice (listed as STX), “are improved”.
